Assay results taken from ChEMBL document CHEMBL1201862, “PubChem BioAssay data set” (2004).
Active and inactive are the calls of the source.

Legend:
Cytochrome P450 2D6 = Cytochrome P450 2D6 (Homo sapiens, UniProt P10635);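 further: CYP2D6 member of a cytochrome P450 panel assay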
[1] = insulin promoter down-regulators in MIN6 cells, imaging, high-content screening, mouse beta cells (AID 1628); type: functional
[2] = cytotoxicity in MIN6 insulinoma cells, dose response, cytotoxicity control, cell-based, mouse insulinoma (AID 2122); type: functional;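 further: confirmatory high-throughput counterscreen run to flag cytotoxic compounds; mouse MIN-6 beta cells carrying an insulin promoter eGFP reporter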
[3] = inhibitors of cytokine-induced nitrite release, dose response, cell-based, Griess absorbance, INS-1E, dry powder, set 3 (AID 488870); type: functional; conditions: Rattus norvegicus
[4] = molecular target: T1, Intestinal-type alkaline phosphatase (Homo sapiens, UniProt P09923); test: inhibition of human intestinal alkaline phosphatase – biochemical, dose response (AID 488876); type: functional
T1 sequence (P09923 whole entry): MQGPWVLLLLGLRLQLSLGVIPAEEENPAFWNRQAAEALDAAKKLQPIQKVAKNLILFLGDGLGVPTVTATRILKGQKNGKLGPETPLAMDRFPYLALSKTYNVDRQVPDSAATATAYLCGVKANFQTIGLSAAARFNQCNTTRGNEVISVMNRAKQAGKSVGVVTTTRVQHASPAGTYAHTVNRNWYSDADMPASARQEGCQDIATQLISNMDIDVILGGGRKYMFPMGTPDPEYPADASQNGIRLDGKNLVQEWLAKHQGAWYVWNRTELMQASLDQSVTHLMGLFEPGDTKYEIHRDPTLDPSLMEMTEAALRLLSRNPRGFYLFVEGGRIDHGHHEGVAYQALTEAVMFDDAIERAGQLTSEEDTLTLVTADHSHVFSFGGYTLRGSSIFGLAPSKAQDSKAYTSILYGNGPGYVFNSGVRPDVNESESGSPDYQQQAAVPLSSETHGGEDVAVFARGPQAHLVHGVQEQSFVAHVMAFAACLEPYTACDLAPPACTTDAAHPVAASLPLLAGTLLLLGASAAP

[5] = molecular target: T2, Intestinal-type alkaline phosphatase (Mus musculus, UniProt P24822); test: PubChem AID 488785; type: functional
T2 sequence (P24822 whole entry): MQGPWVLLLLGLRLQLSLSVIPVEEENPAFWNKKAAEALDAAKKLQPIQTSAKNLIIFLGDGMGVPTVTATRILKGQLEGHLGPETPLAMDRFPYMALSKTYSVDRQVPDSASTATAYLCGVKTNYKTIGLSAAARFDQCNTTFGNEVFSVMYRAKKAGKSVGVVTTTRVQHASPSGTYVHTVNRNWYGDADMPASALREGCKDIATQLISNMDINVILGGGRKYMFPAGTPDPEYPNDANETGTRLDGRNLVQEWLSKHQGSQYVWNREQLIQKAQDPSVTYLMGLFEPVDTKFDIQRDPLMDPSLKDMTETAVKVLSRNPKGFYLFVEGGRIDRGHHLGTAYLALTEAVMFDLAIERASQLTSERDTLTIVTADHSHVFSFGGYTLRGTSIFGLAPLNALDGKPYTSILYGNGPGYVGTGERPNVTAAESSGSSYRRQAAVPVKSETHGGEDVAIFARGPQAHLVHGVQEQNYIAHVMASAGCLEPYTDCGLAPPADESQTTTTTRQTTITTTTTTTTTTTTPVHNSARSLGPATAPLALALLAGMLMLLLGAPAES

[6] = molecular target: T3, Alkaline phosphatase, tissue-nonspecific isozyme (Homo sapiens, UniProt P05186); test: TNAP enzyme inhibition by screening hits, dose response, selectivity assay for mouse IAP inhibitor project, biochemical, human TNAP, uHTS hits (AID 488906); type: functional
T3 sequence (P05186 whole entry): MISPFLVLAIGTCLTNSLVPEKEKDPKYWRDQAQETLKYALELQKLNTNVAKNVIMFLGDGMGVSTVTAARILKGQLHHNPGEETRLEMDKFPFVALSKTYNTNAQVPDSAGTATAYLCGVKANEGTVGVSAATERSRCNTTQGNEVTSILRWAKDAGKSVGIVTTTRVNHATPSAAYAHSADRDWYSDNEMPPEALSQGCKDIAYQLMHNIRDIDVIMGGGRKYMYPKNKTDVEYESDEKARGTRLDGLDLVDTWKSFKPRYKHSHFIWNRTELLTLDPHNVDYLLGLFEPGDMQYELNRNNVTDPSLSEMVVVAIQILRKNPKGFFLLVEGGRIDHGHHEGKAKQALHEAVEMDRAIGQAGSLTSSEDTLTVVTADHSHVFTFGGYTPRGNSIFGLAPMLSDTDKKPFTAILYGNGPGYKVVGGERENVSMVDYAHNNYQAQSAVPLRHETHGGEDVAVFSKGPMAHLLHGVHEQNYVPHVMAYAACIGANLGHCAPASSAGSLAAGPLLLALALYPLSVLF

[7] = molecular target: Induced myeloid leukemia cell differentiation protein Mcl-1 (Homo sapiens, UniProt Q07820); test: MCL1-BIM BH3 interaction inhibitors, dose response, biochemical, fluorescence polarization, BIM-BH3 peptide, 1536-well (AID 2217)
Aminopeptidase N = molecular target: T4, Aminopeptidase N (Plasmodium falciparum FcB1/Columbia, UniProt O96935); test: P. falciparum M1AAP inhibitors, biochemical, fluorogenic H-Leu-NHMec substrate, 1536-well (AID 1445); set-up: species or system Plasmodium falciparum 3D7, 3D7
T4 sequence (O96935 whole entry): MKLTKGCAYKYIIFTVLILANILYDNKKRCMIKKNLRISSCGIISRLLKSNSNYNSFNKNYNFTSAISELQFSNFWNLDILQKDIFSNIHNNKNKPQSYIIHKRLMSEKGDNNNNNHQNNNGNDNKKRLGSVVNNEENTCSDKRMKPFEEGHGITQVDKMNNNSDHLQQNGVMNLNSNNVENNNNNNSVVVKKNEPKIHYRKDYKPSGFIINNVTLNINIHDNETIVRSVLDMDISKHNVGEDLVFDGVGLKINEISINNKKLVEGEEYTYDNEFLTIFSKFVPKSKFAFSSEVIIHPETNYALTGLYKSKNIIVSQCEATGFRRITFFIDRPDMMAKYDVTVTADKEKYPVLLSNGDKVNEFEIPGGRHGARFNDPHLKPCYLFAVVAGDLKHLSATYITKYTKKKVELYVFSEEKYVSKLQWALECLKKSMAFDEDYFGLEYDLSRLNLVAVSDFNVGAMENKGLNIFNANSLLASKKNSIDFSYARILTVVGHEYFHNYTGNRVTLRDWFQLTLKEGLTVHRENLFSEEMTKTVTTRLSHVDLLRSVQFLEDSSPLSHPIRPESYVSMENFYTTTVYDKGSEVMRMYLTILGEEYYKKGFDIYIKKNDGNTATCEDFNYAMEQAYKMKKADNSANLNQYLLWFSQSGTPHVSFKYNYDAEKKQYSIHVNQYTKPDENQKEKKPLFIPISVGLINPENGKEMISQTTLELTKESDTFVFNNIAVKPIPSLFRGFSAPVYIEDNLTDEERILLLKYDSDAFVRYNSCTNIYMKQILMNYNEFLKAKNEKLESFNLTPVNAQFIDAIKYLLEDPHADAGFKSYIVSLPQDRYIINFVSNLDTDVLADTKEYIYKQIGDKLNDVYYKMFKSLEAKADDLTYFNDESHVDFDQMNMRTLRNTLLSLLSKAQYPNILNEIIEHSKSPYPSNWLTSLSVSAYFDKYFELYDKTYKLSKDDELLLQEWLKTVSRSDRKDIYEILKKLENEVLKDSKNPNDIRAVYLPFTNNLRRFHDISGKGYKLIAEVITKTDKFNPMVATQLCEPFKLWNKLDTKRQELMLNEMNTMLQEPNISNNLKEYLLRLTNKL

Bcl-2-like protein 1 = Bcl-2-like protein 1 (Homo sapiens, UniProt Q07817); test: BCL-XL inhibitors, dose response, selectivity assay for MCL1 inhibitor project, biochemical, fluorescence polarization, 1536-well (AID 2218)
Sequence of Bcl-2-like protein 1 (Q07817 whole entry): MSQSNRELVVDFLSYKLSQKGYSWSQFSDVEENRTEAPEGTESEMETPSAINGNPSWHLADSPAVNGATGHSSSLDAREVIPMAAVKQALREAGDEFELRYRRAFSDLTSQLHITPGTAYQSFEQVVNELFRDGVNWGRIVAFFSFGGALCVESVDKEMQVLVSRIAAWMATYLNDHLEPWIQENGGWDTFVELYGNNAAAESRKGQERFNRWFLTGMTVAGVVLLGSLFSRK

[8] = molecular target: T5, Apoptotic protease-activating factor 1 (Homo sapiens, UniProt O14727); test: activation of Apaf-1 mediated apoptosis – fluorescent, uHTS hits, dose response (AID 588554); type: functional
T5 sequence (O14727 whole entry): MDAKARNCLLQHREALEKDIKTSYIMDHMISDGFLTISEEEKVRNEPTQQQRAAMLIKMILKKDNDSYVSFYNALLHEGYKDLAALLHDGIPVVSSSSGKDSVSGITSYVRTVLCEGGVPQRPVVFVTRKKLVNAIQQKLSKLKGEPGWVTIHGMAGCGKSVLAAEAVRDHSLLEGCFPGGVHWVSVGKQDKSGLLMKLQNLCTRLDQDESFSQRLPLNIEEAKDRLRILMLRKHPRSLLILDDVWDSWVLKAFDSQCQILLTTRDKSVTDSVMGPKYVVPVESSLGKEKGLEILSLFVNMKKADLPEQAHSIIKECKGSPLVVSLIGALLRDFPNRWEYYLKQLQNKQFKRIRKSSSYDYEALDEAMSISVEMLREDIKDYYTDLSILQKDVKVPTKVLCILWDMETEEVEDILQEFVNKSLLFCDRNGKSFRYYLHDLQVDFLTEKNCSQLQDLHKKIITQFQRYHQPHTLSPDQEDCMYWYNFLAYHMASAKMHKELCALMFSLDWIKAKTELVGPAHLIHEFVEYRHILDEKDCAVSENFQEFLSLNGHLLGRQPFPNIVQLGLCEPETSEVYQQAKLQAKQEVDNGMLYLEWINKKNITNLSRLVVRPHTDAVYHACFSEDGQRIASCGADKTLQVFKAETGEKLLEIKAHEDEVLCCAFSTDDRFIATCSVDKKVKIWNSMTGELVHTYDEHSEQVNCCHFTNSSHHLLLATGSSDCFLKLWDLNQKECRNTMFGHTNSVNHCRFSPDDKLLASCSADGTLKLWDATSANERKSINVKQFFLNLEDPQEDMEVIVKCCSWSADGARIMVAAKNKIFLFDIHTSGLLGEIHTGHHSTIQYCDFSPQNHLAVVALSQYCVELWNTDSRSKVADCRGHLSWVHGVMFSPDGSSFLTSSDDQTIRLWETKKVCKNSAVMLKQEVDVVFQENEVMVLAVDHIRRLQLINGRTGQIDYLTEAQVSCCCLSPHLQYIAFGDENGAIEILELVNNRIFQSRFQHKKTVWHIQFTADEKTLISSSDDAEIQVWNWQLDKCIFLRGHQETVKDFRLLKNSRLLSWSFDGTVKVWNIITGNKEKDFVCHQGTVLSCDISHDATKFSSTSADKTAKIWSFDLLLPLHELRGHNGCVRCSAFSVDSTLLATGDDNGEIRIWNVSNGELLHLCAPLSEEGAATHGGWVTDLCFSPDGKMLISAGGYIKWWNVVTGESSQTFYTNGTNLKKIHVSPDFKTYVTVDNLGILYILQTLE

[9] = molecular target: Envelope glycoprotein gp160 (Human immunodeficiency virus 1, UniProt Q6QLK5); test: inhibitors of HIV fusion peptide binding, primary screen, biochemical, uHTS, fluorescence dequenching (AID 1986)
Sequence of Envelope glycoprotein gp160 (Q6QLK5 whole entry, the tested form may be a part): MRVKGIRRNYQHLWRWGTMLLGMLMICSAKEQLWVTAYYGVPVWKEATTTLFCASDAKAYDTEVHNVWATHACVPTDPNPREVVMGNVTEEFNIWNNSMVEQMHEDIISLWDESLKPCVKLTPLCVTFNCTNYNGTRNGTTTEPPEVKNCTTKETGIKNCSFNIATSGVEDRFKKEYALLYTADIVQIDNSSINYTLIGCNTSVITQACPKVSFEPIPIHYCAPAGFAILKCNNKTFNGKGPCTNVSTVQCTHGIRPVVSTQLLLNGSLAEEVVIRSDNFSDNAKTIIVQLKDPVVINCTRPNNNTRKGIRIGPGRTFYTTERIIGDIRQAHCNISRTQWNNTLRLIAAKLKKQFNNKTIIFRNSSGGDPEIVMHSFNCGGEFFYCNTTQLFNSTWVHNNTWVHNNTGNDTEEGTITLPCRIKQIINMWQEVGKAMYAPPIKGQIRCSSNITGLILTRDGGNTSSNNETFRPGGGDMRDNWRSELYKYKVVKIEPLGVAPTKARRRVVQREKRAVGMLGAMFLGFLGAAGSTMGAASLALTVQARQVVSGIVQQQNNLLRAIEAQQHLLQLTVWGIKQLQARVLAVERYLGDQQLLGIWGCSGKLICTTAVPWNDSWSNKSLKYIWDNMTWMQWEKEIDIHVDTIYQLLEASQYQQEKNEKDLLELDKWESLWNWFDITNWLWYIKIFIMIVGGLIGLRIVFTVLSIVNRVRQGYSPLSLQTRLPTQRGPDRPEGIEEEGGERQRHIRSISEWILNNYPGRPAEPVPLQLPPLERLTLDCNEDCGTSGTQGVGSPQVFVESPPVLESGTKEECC

[10] = molecular target: UDP-galactopyranose mutase (Mycobacterium tuberculosis, UniProt P9WIQ1); test: Inhibitors of Mycobacterium tuberculosis UDP-galactopyranose mutase (UGM) enzyme Measured in Biochemical System Using Plate Reader - 2105-02_Inhibitor_Dose_CherryPick_Activity. [Related pubchem assays (depositor defined):AID504439]
Sequence of UDP-galactopyranose mutase (P9WIQ1 whole entry): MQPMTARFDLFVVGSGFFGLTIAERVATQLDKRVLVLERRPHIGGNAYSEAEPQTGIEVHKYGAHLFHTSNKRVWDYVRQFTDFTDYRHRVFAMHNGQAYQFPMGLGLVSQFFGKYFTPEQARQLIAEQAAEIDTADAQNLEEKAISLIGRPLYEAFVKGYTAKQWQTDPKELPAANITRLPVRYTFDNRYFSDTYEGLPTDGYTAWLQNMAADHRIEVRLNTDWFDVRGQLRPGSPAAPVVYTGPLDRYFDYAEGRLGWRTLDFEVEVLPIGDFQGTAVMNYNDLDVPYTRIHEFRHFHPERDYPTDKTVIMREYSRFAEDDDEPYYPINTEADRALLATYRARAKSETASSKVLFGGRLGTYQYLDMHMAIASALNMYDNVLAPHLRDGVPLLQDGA

[11] = molecular target: T2, Intestinal-type alkaline phosphatase; test: PubChem AID 488875; type: functional
[12] = molecular target: T3, Alkaline phosphatase, tissue-nonspecific isozyme; test: TNAP enzyme activators, dose response, selectivity assay for human IAP activator project, biochemical, TNAP isozyme, human IAP uHTS hits (AID 488886); type: functional;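 further: potency of compounds raising TNAP activity as a selectivity check on IAP activators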
[13] = molecular target: T1, Intestinal-type alkaline phosphatase; test: human IAP activators, dose response, biochemical, luminescent, uHTS hits, set 2 (AID 488817); type: functional;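 further: potency of activators that raise enzyme activity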
[14] = molecular target: T1, Intestinal-type alkaline phosphatase; test: human intestinal alkaline phosphatase activators, dose response, biochemical, luminescence, uHTS hits (AID 463120); type: functional
[15] = A cytotoxicity screen of small molecule inhibitors of the PhoP region in Salmonella typhi identified in the primary screen. [Related pubchem assays: 1850, 1864, 1985 ]; type: functional
[16] = growth induction of Burl-1 ts yeast mutant, dose response, counter-screen for SUMOylation pathway inhibitor project, whole organism, S. cerevisiae, luminescence (AID 463199); type: functional
Cytochrome P450 2C19 = Cytochrome P450 2C19 (Homo sapiens, UniProt P33261); test: Cytochrome panel assay with activity outcomes. Panel member name: p450-cyp2c19 Compounds with AC50 equal or less than 10 uM are considered active; type: functional; conditions: read-out: AC50
Sequence of Cytochrome P450 2C19 (P33261 whole entry): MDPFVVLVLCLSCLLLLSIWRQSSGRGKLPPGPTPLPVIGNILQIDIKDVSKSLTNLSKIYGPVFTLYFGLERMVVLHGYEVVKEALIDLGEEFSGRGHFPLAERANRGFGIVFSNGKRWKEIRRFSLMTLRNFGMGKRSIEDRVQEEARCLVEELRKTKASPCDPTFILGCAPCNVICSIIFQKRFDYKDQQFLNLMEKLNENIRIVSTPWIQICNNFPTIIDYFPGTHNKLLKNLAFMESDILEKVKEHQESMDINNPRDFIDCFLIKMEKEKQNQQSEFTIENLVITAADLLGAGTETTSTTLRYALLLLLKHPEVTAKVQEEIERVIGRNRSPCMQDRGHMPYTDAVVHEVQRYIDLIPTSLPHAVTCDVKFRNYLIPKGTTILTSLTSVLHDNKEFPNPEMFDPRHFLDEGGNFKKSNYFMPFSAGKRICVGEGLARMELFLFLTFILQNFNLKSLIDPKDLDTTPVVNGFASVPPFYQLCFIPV

Cytochrome P450 2C9 [17] = molecular target: T6, Cytochrome P450 2C9 (Homo sapiens, UniProt P11712)
T6 sequence (P11712 whole entry): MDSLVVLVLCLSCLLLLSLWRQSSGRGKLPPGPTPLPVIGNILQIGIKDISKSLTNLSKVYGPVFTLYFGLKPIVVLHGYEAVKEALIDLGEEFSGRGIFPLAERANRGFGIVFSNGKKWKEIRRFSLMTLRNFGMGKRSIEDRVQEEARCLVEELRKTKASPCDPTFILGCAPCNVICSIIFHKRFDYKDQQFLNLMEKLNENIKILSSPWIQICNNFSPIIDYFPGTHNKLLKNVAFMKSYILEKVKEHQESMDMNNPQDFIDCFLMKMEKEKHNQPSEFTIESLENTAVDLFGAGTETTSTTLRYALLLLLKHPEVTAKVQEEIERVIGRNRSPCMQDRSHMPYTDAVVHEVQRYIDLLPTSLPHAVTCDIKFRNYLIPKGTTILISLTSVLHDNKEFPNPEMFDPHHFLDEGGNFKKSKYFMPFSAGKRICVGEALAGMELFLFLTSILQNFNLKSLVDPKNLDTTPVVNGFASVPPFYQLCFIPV

Cytochrome P450 1A2 = molecular target: T7, Cytochrome P450 1A2 (Homo sapiens, UniProt P05177);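 further: PubChem cytochrome P450 panel assay, CYP1A2 panel member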
T7 sequence (P05177 whole entry): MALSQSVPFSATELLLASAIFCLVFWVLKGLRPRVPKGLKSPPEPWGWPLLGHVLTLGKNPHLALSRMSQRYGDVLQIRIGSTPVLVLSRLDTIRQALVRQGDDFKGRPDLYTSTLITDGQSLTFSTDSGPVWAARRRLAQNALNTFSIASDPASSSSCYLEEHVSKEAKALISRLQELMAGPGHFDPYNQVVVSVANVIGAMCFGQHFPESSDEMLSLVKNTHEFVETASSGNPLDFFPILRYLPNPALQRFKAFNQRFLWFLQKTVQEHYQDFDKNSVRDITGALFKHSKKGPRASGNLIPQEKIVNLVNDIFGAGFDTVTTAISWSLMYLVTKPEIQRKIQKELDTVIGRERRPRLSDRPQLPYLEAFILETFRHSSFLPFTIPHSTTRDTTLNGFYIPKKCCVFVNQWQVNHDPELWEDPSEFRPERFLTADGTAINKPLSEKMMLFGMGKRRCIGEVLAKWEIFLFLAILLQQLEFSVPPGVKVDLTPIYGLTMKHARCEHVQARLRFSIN

[18] = molecular target: Nucleotide-binding oligomerization domain-containing protein 1 (Homo sapiens, UniProt Q9Y239); test: NOD1 signaling inhibitors, SAR follow-up, revised (AID 2333); type: functional
Sequence of Nucleotide-binding oligomerization domain-containing protein 1 (Q9Y239 whole entry, the tested form may be a part): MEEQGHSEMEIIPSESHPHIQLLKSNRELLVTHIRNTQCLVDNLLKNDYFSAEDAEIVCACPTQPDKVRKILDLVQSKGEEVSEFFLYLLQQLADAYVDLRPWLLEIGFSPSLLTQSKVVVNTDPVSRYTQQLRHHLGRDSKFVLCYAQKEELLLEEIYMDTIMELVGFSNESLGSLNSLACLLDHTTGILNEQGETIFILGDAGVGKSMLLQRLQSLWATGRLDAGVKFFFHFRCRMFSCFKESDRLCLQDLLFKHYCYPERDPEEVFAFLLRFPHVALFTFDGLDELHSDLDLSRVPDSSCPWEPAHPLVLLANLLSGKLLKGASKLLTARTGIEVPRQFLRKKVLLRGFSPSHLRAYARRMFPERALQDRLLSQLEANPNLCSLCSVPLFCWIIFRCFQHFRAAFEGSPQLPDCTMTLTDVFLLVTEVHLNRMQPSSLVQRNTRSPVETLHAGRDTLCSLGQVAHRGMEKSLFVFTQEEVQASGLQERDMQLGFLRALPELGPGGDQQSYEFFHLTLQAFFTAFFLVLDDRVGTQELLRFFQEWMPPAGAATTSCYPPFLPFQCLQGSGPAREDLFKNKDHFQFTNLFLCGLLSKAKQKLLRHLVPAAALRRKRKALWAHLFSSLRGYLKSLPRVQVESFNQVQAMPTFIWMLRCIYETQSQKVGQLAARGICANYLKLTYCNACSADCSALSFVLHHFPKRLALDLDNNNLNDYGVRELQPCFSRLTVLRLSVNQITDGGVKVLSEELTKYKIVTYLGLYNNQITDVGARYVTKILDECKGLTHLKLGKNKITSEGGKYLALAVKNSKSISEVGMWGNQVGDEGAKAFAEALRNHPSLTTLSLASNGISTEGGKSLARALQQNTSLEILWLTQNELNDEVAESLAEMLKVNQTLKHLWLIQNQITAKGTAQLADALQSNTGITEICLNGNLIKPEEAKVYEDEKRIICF

HEK293 = test: cells; conditions: Homo sapiens;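 further: cells exposed to compound for 14 hours overnight before viability readout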
Tumor necrosis factor = Tumor necrosis factor (Homo sapiens, UniProt P01375); test: TNFa-triggered NF-kB activation inhibitors, SAR follow-up, cell-based, revised (AID 2337); type: functional
Cytochrome P450 2C9 [19] = molecular target: T6, Cytochrome P450 2C9; remark: listed apart in the source

Sequence of Cytochrome P450 2D6 (P10635 whole entry): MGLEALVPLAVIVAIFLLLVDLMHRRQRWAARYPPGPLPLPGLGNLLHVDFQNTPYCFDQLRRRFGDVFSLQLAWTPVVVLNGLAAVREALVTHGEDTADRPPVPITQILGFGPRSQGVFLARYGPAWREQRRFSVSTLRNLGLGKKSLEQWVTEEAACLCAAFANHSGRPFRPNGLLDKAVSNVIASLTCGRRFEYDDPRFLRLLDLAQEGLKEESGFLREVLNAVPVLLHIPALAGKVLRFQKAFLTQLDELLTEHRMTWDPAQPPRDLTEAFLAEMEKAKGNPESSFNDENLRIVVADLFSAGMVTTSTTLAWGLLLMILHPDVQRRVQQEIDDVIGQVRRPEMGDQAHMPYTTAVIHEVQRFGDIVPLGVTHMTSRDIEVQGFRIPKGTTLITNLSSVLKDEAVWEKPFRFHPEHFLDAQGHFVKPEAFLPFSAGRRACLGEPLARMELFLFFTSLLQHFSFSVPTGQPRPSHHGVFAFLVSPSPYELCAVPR

In the case of COc1ccccc1NC(=O)c1nc[nH]c1C(=O)Nc1ccccc1OC, the AC50 (Cytochrome P450 2D6) is reported as “inconclusive”.

For CN1CCN(Cc2ccc(OCc3ccccc3)cc2)CC1, the IC50 [1] was 3.08 µM (active) and the IC50 [2] was 1.8 µM (active).

For C[C@@H]1CN([C@@H](C)CO)C(=O)c2cccc(NC(=O)Nc3cccc4ccccc34)c2O[C@H]1CN(C)C(=O)Nc1ccc2c(c1)OCO2, the AC50 [3] was 51.5 µM (active).

For Nc1nnc(CC(=O)N/N=C/c2cc([N+](=O)[O-])cc(Br)c2O)s1, the IC50 [4] was > 100 µM (inactive), the IC50 [5] was 2.79 µM (active) and the IC50 [6] was 20.6 µM (active). For the same compound, the IC50 [7] was 23.1 µM (not active), the IC50 (Aminopeptidase N) was 30 µM (active) and the IC50 (Bcl-2-like protein 1) was > 109 µM (not active).

With O=C(O)CCN1C(=O)/C(=C\c2ccc(OCc3ccccc3)c(OCc3ccccc3)c2)SC1=S the EC50 [8] was 18.7 µM (active) and the IC50 [9] was 10.2 µM (active).

In the case of CCCCCCNC(=O)C(C#N)c1nc2ccccc2nc1N1CCOCC1 (stereo unspecified), the AC50 [10] is reported as 70 µM (active).

For COc1cc(NC(=O)NCC2CCN(Cc3ccccc3C)CC2)cc(OC)c1OC, the EC50 [11] was 52.6 µM (active), the EC50 [12] was 73.9 µM (active) and the EC50 [13] was 64.7 µM (active). The EC50 [14] was 70 µM (active).

In the case of CC1CCN(CCCCOc2ccc(Cl)cc2)CC1, the EC50 [15] is reported as > 50 µM (active) and the AC50 [16] is reported as 46.3 µM (active).

With COC(=O)[C@@]1(Cc2ccc(F)cc2)[C@@H]2[C@@H](CC(=O)[C@H]2CC(=O)C(=O)N2CCCC2)CN1C(=O)c1ccccc1 the AC50 (Cytochrome P450 2C19) was 15.8 µM (inconclusive), the AC50 (Cytochrome P450 2C9 [17]) was 39.8 µM (inconclusive) and the AC50 (Cytochrome P450 1A2) was “inconclusive”.

In the case of O=C(Nc1ccc(OC(F)(F)F)cc1)c1ccc(CN2CCc3ccccc3C2)cc1, the IC50 [18] is reported as < 0.0391 µM (active), the IC50 (HEK293) is reported as > 20 µM (inactive) and the IC50 (Tumor necrosis factor) is reported as 0.0244 µM (active).

In the case of Cc1ccc(NC(=O)c2nnn(-c3cc(C)cc(C)c3)c2N)cc1, the AC50 (Cytochrome P450 2C9 [19]) is reported as “inconclusive”.
